This note sets out measurements from patent US20040259775A1, “Conformationally constrained peptides that bind the ORL-1 receptor” (EURO-CELTIQUE S.A., priority 2002, published 2004).

One test deals with T1, human ORL-1 receptor (Homo sapiens, UniProt P41146).
T1 construct: host or cells: recombinant HEK-293 cells
Description: [35S]GTPγS functional assay with ORL-1 receptor membranes. It counts as biochemical. The conditions noted are these: for Emax: [35S]GTPγS functional assay, NC = 100. The protocol: Filter plates were subsequently dried at 50° C. for 2-3 hours. […] 3.0.
Background: Binding of GTPγS marks nucleotide exchange on a G protein.

In test [1] the target is human opioid receptor-like (ORL-1) receptor (Homo sapiens, UniProt P41146). It counts as binding.
Chain of human opioid receptor-like (ORL-1) receptor (P41146 whole entry): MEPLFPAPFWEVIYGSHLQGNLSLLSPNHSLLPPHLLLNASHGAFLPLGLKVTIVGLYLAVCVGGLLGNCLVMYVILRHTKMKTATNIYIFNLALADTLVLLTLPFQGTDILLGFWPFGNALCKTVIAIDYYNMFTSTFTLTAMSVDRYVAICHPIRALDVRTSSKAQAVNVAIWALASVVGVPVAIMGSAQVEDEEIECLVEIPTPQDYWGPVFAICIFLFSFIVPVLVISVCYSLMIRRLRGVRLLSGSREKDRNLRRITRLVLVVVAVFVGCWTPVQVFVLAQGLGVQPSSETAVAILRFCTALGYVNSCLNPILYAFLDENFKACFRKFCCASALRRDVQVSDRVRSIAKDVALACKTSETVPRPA

T1 sequence (P41146 whole entry): as above

For `CC(C)C[C@H](NC(=O)[C@H](CCCCN)NC(=O)[C@H](CCCNC(=N)N)NC(=O)C(C)(C)NC(=O)[C@H](CO)NC(=O)[C@H](CCCCN)NC(=O)[C@H](CCCNC(=N)N)NC(=O)C(C)(C)NC(=O)CNC(=O)[C@@H](NC(=O)[C@H](Cc1ccccc1)NC(=O)CNC(=O)CNC(=O)[C@@H](N)Cc1ccccc1)[C@@H](C)O)C(=O)N[C@@H](C)C(=O)N[C@@H](CC(N)=O)C(=O)N[C@@H](CCC(N)=O)C(N)=O` [VIIA, FGGFTG(AIB)RKS(AIB)RKLANQ-NH2], at human ORL-1 receptor, the Emax (usually the greatest response seen or fitted, relative to the assay's reference) stood at 90%. Further, the “agonist character at ORL-1” value on human ORL-1 receptor (functional assay, in words) is given as “efficacious agonist”. At human ORL-1 receptor (in words), the “potency compared with NC” value was “more potent”. Besides, in test [1], the “affinity compared with NC” value is given as “significantly higher affinity”.
The compound `CC(C)C[C@H](NC(=O)[C@H](CCCCN)NC(=O)[C@H](CCCNC(=N)N)NC(=O)[C@H](C)NC(=O)[C@H](CO)NC(=O)[C@H](CCCCN)NC(=O)[C@H](CCCNC(=N)N)NC(=O)C(C)(C)NC(=O)CNC(=O)[C@@H](NC(=O)[C@H](Cc1ccccc1)NC(=O)CNC(=O)CNC(=O)[C@@H](N)Cc1ccccc1)[C@@H](C)O)C(=O)N[C@@H](C)C(=O)N[C@@H](CC(N)=O)C(=O)N[C@@H](CCC(N)=O)C(=O)O` [I] came in with an Emax on human ORL-1 receptor of 97%.
Still for that read-out and setting: the same measure for `CC(C)C[C@H](NC(=O)[C@H](CCCCN)NC(=O)[C@H](CCCNC(=N)N)NC(=O)C(C)(C)NC(=O)[C@H](CO)NC(=O)[C@H](CCCCN)NC(=O)[C@H](CCCNC(=N)N)NC(=O)[C@H](C)NC(=O)CNC(=O)[C@@H](NC(=O)[C@H](Cc1ccccc1)NC(=O)CNC(=O)CNC(=O)[C@@H](N)Cc1ccccc1)[C@@H](C)O)C(=O)N[C@@H](C)C(=O)N[C@@H](CC(N)=O)C(=O)N[C@@H](CCC(N)=O)C(=O)O` [II]: 96%; for `CC(C)C[C@H](NC(=O)[C@H](CCCCN)NC(=O)[C@H](CCCNC(=N)N)NC(=O)[C@H](C)NC(=O)[C@H](CO)NC(=O)[C@H](CCCCN)NC(=O)[C@H](CCCNC(=N)N)NC(=O)[C@H](C)NC(=O)CNC(=O)[C@@H](NC(=O)[C@H](Cc1ccccc1)NC(=O)CNC(=O)CNC(=O)[C@@H](N)Cc1ccccc1)[C@@H](C)O)C(=O)NC(C)(C)C(=O)N[C@@H](CC(N)=O)C(=O)N[C@@H](CCC(N)=O)C(=O)O` [III]: 91%; for `CC(C)C[C@H](NC(=O)[C@H](CCCCN)NC(=O)[C@H](CCCNC(=N)N)NC(=O)[C@H](C)NC(=O)[C@H](CO)NC(=O)[C@H](CCCCN)NC(=O)[C@H](CCCNC(=N)N)NC(=O)[C@H](C)NC(=O)CNC(=O)[C@@H](NC(=O)[C@H](Cc1ccccc1)NC(=O)CNC(=O)CNC(=O)[C@@H](N)Cc1ccccc1)[C@@H](C)O)C(=O)NC(C)(C)C(=O)N[C@@H](CC(N)=O)C(=O)N[C@@H](CCC(N)=O)C(N)=O` [IIIA]: 97%.
Same read-out and setting: the value for `CC(C)C[C@H](NC(=O)[C@H](CCCCN)NC(=O)[C@H](CCCNC(=N)N)NC(=O)C(C)(C)NC(=O)[C@H](CO)NC(=O)[C@H](CCCCN)NC(=O)[C@H](CCCNC(=N)N)NC(=O)[C@H](C)NC(=O)CNC(=O)[C@@H](NC(=O)[C@H](Cc1ccccc1)NC(=O)CNC(=O)CNC(=O)[C@@H](N)Cc1ccccc1)[C@@H](C)O)C(=O)N[C@@H](C)C(=O)N[C@@H](CC(N)=O)C(=O)N[C@@H](CCC(N)=O)C(N)=O` [IIA] was 82%; that for `CC(C)C[C@H](NC(=O)[C@H](CCCCN)NC(=O)[C@H](CCCNC(=N)N)NC(=O)[C@H](C)NC(=O)[C@H](CO)NC(=O)[C@H](CCCCN)NC(=O)[C@H](CCCNC(=N)N)NC(=O)C(C)(C)NC(=O)CNC(=O)[C@@H](NC(=O)[C@H](Cc1ccccc1)NC(=O)CNC(=O)CNC(=O)[C@@H](N)Cc1ccccc1)[C@@H](C)O)C(=O)N[C@@H](C)C(=O)N[C@@H](CC(N)=O)C(=O)N[C@@H](CCC(N)=O)C(N)=O` [IA] was 82%.
